According to ChEMBL document CHEMBL1137924, “Carbonic anhydrase inhibitors. Inhibition of the beta-class enzyme from the methanoarchaeon Methanobacterium thermoautotrophicum (Cab) with anions” (Bioorg Med Chem Lett, 2004):
Where “and” joins values, the source holds several entries; their conditions need not be identical. Equal values may be shown once.

What was measured:
Carbonic anhydrase [1] = molecular target: T1, Carbonic anhydrase (Methanobacterium thermoautotrophicum, UniProt Q50565); parameters: species or system Methanothermobacter thermautotrophicus str. Delta H
T1 sequence (Q50565 whole entry): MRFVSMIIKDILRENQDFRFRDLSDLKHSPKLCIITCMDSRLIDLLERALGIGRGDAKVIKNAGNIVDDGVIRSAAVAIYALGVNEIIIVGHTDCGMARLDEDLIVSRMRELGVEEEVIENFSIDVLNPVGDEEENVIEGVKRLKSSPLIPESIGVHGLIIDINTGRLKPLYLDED

Carbonic anhydrase [2] = molecular target: T2, Carbonic anhydrase (Methanosarcina thermophila, UniProt P40881); assay type: functional
T2 sequence (P40881 whole entry): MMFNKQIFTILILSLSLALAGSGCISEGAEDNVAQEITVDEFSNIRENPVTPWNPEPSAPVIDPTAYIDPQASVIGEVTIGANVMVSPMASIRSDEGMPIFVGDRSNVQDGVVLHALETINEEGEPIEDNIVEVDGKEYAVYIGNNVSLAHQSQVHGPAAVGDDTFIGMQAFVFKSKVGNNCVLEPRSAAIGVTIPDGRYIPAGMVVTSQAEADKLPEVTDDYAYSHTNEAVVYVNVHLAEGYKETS
Description: Inhibitory constant against Zn-Cam (Methanosarcina thermophila)

Carbonic anhydrase 1 = Carbonic anhydrase 1 (Homo sapiens, UniProt P00915)
Sequence of Carbonic anhydrase 1 (P00915 whole entry): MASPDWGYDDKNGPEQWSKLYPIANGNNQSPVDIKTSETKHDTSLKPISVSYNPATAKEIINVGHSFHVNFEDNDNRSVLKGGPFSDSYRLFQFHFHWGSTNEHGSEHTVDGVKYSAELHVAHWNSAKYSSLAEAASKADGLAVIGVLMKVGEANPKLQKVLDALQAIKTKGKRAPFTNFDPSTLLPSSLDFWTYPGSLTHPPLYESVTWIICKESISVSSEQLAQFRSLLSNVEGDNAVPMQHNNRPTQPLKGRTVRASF

Carbonic anhydrase 4 = Carbonic anhydrase 4 (Homo sapiens, UniProt P22748); assay: Inhibitory constant against carbonic anhydrase IV
Sequence of Carbonic anhydrase 4 (P22748 whole entry): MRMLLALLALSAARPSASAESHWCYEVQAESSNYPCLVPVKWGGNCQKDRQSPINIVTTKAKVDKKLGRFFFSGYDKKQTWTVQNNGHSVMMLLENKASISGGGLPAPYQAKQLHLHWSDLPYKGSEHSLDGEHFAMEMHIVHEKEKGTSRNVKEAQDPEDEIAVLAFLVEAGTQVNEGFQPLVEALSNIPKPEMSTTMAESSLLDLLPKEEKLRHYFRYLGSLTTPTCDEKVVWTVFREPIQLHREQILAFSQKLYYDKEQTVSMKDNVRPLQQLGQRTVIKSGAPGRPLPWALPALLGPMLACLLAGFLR

Carbonic anhydrase [3] = molecular target: T1, Carbonic anhydrase; assay: Inhibitory constant against methanoarchaeon Methanobacterium thermoautotrophicum (Cab); parameters: species or system Methanothermobacter thermautotrophicus str. Delta H
Carbonic anhydrase 2 = Carbonic anhydrase 2 (Homo sapiens, UniProt P00918)

Compound	Ki (Carbonic anhydrase [1])	Ki (Carbonic anhydrase [2])	Ki (Carbonic anhydrase 1) [mM]	Ki (Carbonic anhydrase 4) [mM]	Ki (Carbonic anhydrase [3]) [mM]	Ki (Carbonic anhydrase 2) [mM]
O=[N+]([O-])O [NITRIC ACID]	7.8 mM	36.5 mM	7			
NS(=O)(=O)O [SULFAMATE]	44 mM	9.6 mM	0.02			
S [HYDROGEN SULFIDE]	0.7 mM	0.05 mM	0.0006			
OB(O)c1ccccc1 [PHENYLBORONIC ACID]	0.2 mM	0.23 mM	58.6			
Cl [HYDROCHLORIC ACID]		> 200 mM	6	36	152	
O=NO [NITROUS ACID]	44.8 mM	6.8 mM				
I [IODIDE]		160 mM	0.3	11	13.2	
N#CS [THIOCYANIC ACID]		7 mM				
Br [BROMIDE]		160 mM	4	52	42.1	
O[B-](O)(O)c1ccccc1 [OXO(PHENYL)-BORANEDIOL]	0.33 mM	0.15 mM	31.7			49.2
O=S(=O)(O)O [SULFURIC ACID]				44		
NS(N)(=O)=O [SULFAMIDE]		0.07 mM				
O=C(O)O [BICARBONATE]	44.9 mM and 9.6 mM	42 mM and 6.7 mM		44		
